Assay results: patent US6525001B1, “Substituted pyrimidine and pyridine herbicides” (Mid-American Commercialization Corporation, priority 1997, dated 2003)

Assays:
Format in all cases: in vivo
rice (Oryza sativa) = experiment: Test B flood test; parameters: key: 0 is no effect; 10 is complete control; conditions: for Plant response rating, Rice: Postemergence (flood test species)
How it was run: (§1)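 Each value is a visual injury score relative to controls, with 10 meaning complete control and 0 no effect. Evaluation took place twelve to sixteen days after the 2-leaf-stage plants were treated and kept in the greenhouse.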

[1] = test system: bamyardgrass (Echinochloa crus-galli); experiment: Test B flood test; parameters: key: 0 is no effect; 10 is complete control; conditions: for Plant response rating, Barnyardgrass: Postemergence (flood test species)
How it was run: as §1

[2] = test system: duck salad (Heteranthera limosa); experiment: Test B flood test; parameters: key: 0 is no effect; 10 is complete control; conditions: for Plant response rating, Ducksalad: Postemergence (flood test species)
How it was run: as §1

[3] = test system: smallflower flatsedge (Cyperus difformis); experiment: Test B flood test; parameters: key: 0 is no effect; 10 is complete control; conditions: for Plant response rating, S. Flatsedge: Postemergence (flood test species)
How it was run: as §1

[4] = test system: barnyardgrass (Echinochloa crus-galli); experiment: Test A pre-/postemergence; parameters: key: 0 is no effect; 10 is complete control; conditions: 0 to 10 scale
[5] = test system: velvetleaf (Abutilon theophrasti); experiment: Test A pre-/postemergence; parameters: key: 0 is no effect; 10 is complete control; conditions: 0 to 10 scale
[6] = test system: morningglory (Ipomoea spp.); experiment: Test A pre-/postemergence; parameters: key: 0 is no effect; 10 is complete control; conditions: 0 to 10 scale
[7] = test system: crabgrass (Digitaria spp.); experiment: Test A pre-/postemergence; parameters: key: 0 is no effect; 10 is complete control; conditions: 0 to 10 scale
rape (Brassica napus) = experiment: Test B pre-/postemergence; parameters: key: 0 is no effect; 10 is complete control
How it was run: (§2)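 Response scores run from 0, meaning no effect, to 10, meaning complete control, assigned by eye relative to controls twelve to sixteen days after spraying. Treatment was both preemergence on planted seed and postemergence on plants at the 1- to 4-leaf stage.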

soybean (Glycine max) = experiment: Test B pre-/postemergence; parameters: key: 0 is no effect; 10 is complete control
How it was run: as §2

[8] = test system: lambsquarters (Chenopodium album); experiment: Test C; parameters: key: 0 was no effect; 100 was complete control; conditions: PREEMERGENCE
[9] = test system: field bindweed (Convolvulus arvensis); experiment: Test C; conditions: PREEMERGENCE
[10] = test system: eastern black nightshade (Solanum ptycanthum); experiment: Test C; conditions: PREEMERGENCE
[11] = test system: giant foxtail (Setaria faberii); experiment: Test C; parameters: key: 0 was no effect; 100 was complete control; conditions: PREEMERGENCE
[12] = test system: surinam grass (Brachiaria decumbens); experiment: Test C; conditions: PREEMERGENCE
[13] = test system: cotton (Gossypium hirsutum); experiment: Test C; parameters: key: 0 was no effect; 100 was complete control; conditions: PREEMERGENCE
[14] = test system: wild poinsettia (Euphorbia heterophylla); experiment: Test C; parameters: key: 0 was no effect; 100 was complete control; conditions: PREEMERGENCE
[15] = Rate 62 g/ha, Postemergence (flood test)
[16] = Rate 125 g/ha, Postemergence section (flood test species)
[17] = PRE SOIL DRENCH, Rate 2000 g/ha
[18] = postemergence SPRAYED TO RUNOFF, Rate 1000 g/ha
[19] = Preemergence, Rate 62 g/ha, scale of 0 to 10

Cc1cnc(-c2ccc(C(F)(F)F)cc2)nc1C(=O)c1ccc(C(F)(F)F)cc1 [Compound 74]
Rice plant response rating (rice (Oryza sativa); [15]): 0
Rice plant response rating (rice (Oryza sativa); [16]): 0
Plant response rating, Rice (rice (Oryza sativa); Rate 250 g/ha): 0
Plant response rating, Rice (rice (Oryza sativa); Rate 500 g/ha): 0
Barnyardgrass plant response rating [1, 15]: 0
Barnyardgrass plant response rating [1, 16]: 0
Plant response rating, Barnyardgrass ([1]; Rate 250 g/ha): 0
Plant response rating, Barnyardgrass ([1]; Rate 500 g/ha): 0
Ducksalad plant response rating [2, 15]: 0
Ducksalad plant response rating [2, 16]: 0
Plant response rating, Ducksalad ([2]; Rate 250 g/ha): 0
Plant response rating, Ducksalad ([2]; Rate 500 g/ha): 0
S. Flatsedge plant response rating [3, 15]: 0
S. Flatsedge plant response rating [3, 16]: 0
Plant response rating, S. Flatsedge ([3]; Rate 250 g/ha): 0
Plant response rating, S. Flatsedge ([3]; Rate 500 g/ha): 0
Plant response rating, Barnyardgrass [4, 17]: 1
Plant response rating, Barnyardgrass [4, 18]: 5
Plant response rating, Velvetleaf [5, 17]: 4
Plant response rating, Velvetleaf [5, 18]: 5
Plant response rating, Morningglory [6, 17]: 1
Plant response rating, Morningglory [6, 18]: 10
Plant response rating, Crabgrass [7, 17]: 7
Plant response rating, Crabgrass [7, 18]: 8
Plant response rating, Rape (rape (Brassica napus); [19]): 0
Rape plant response rating (rape (Brassica napus); Rate 62 g/ha, Postemergence): 1
Rape plant response rating (rape (Brassica napus); Rate 125 g/ha, Postemergence): 1
Plant response rating, Rape (rape (Brassica napus); Rate 125 g/ha, Preemergence): 0
Plant response rating, Rape (rape (Brassica napus); Rate 250 g/ha, Postemergence): 1
Plant response rating, Rape (rape (Brassica napus); Rate 250 g/ha, Preemergence): 0
Plant response rating, Rape (rape (Brassica napus); Rate 500 g/ha, Postemergence): 3
Plant response rating, Rape (rape (Brassica napus); Rate 500 g/ha, Preemergence): 0
Plant response rating, Soybean (soybean (Glycine max); [19]): 0
Soybean plant response rating (soybean (Glycine max); Rate 62 g/ha, Postemergence): 2
Soybean plant response rating (soybean (Glycine max); Rate 125 g/ha, Postemergence): 2
Plant response rating, Soybean (soybean (Glycine max); Rate 125 g/ha, Preemergence): 0
Plant response rating, Soybean (soybean (Glycine max); Rate 250 g/ha, Postemergence): 2
Plant response rating, Soybean (soybean (Glycine max); Rate 250 g/ha, Preemergence): 0
Plant response rating, Soybean (soybean (Glycine max); Rate 500 g/ha, Postemergence): 3
Plant response rating, Soybean (soybean (Glycine max); Rate 500 g/ha, Preemergence): 0

Cc1cnc(-c2ccc(C(F)(F)F)cc2)nc1Cc1cccc(C(F)(F)F)c1 [Example 1, 5-methyl-2-[4-(trifluoromethyl)phenyl]-4-[[3-(trifluoromethyl)phenyl]methyl]pyrimidine]
Plant response rating, Lambsquarters ([8]; Rate 35 g/ha): 100
Plant response rating, Lambsquarters ([8]; Rate 70 g/ha): 100
Plant response rating, Lambsquarters ([8]; Rate 140 g/ha): 100
Plant response rating, Field bindweed ([9]; Rate 35 g/ha): 65
Plant response rating, Field bindweed ([9]; Rate 70 g/ha): 50
Plant response rating, Field bindweed ([9]; Rate 140 g/ha): 50
Plant response rating, Barnyardgrass [4, 17]: 10
Plant response rating, Barnyardgrass [4, 18]: 9
Plant response rating, Velvetleaf [5, 17]: 9
Plant response rating, Velvetleaf [5, 18]: 9
Plant response rating, Morningglory [6, 17]: 8
Plant response rating, Morningglory [6, 18]: 9
Plant response rating, Crabgrass [7, 17]: 10
Plant response rating, Crabgrass [7, 18]: 9
Plant response rating, E. blacknightsh ([10]; Rate 35 g/ha): 90
Plant response rating, E. blacknightsh ([10]; Rate 70 g/ha): 90
Plant response rating, E. blacknightsh ([10]; Rate 140 g/ha): 95
Plant response rating, Giant foxtail ([11]; Rate 35 g/ha): 100
Plant response rating, Giant foxtail ([11]; Rate 70 g/ha): 100
Plant response rating, Giant foxtail ([11]; Rate 140 g/ha): 100
Plant response rating, Rape (rape (Brassica napus); Rate 62 g/ha, Postemergence): 9
Rape plant response rating (rape (Brassica napus); Rate 62 g/ha, Preemergence): 10
Plant response rating, Rape (rape (Brassica napus); Rate 125 g/ha, Postemergence): 9
Rape plant response rating (rape (Brassica napus); Rate 125 g/ha, Preemergence): 10
Plant response rating, Rape (rape (Brassica napus); Rate 250 g/ha, Postemergence): 9
Plant response rating, Rape (rape (Brassica napus); Rate 250 g/ha, Preemergence): 10
Plant response rating, Rape (rape (Brassica napus); Rate 500 g/ha, Postemergence): 9
Plant response rating, Rape (rape (Brassica napus); Rate 500 g/ha, Preemergence): 10
Plant response rating, Soybean (soybean (Glycine max); Rate 62 g/ha, Postemergence): 8
Soybean plant response rating (soybean (Glycine max); Rate 62 g/ha, Preemergence): 1
Plant response rating, Soybean (soybean (Glycine max); Rate 125 g/ha, Postemergence): 8
Soybean plant response rating (soybean (Glycine max); Rate 125 g/ha, Preemergence): 1
Plant response rating, Soybean (soybean (Glycine max); Rate 250 g/ha, Postemergence): 9
Plant response rating, Soybean (soybean (Glycine max); Rate 250 g/ha, Preemergence): 3
Plant response rating, Soybean (soybean (Glycine max); Rate 500 g/ha, Postemergence): 9
Plant response rating, Soybean (soybean (Glycine max); Rate 500 g/ha, Preemergence): 5
Plant response rating, Surinam grass ([12]; Rate 35 g/ha): 50
Plant response rating, Surinam grass ([12]; Rate 70 g/ha): 90
Plant response rating, Surinam grass ([12]; Rate 140 g/ha): 95
Plant response rating, Cotton ([13]; Rate 35 g/ha): 30
Plant response rating, Cotton ([13]; Rate 70 g/ha): 60
Plant response rating, Cotton ([13]; Rate 140 g/ha): 100
Plant response rating, Wild poinsettia ([14]; Rate 35 g/ha): 0
Plant response rating, Wild poinsettia ([14]; Rate 70 g/ha): 10
Plant response rating, Wild poinsettia ([14]; Rate 140 g/ha): 50
